# Measurements as given in PubChem BioAssay AID2842 (Southern Research Institute, 2010).
# Test system: M. tuberculosis H37Rv growth inhibition
# Assay: Mycobacterium tuberculosis H37Rv growth inhibition, putative kinase inhibitor library, confirmatory dose response (AID 2842);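 also: bacteria incubated one week before Alamar blue readout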
row,SMILES,IC90 [µg/mL]
1,Cc1ccc(-c2nnc3c4cc5c(cc4n(Cc4ccccc4F)cc2-3)OCCO5)cc1C,6.25
2,Cc1ccc(-c2nnc(NC(=O)c3cc4ccccc4oc3=O)o2)c(C)c1,1.36
3,C=CCn1c(=NC(=O)c2ccc([N+](=O)[O-])s2)sc2cc(S(N)(=O)=O)ccc21,< 0.2
4,Cc1cccc(Cn2c(N3CCN(Cc4ccc(Cl)cc4)CC3)nc3c2c(=O)[nH]c(=O)n3C)c1,3.15
5,Cc1ccc(-c2nnc(NC(=O)c3ccc4c(c3)CCCC4)o2)c(C)c1,36.9
6,COc1ccc(-c2cc3ccccc3n2CC(O)CNCCc2ccccc2)cc1 (centres undefined),4.11
7,O=C(CSc1c[nH]c2ccccc12)Nc1ccc(Br)cc1,3.2
8,O=C(CSc1nnc2ccc(-c3cccc([N+](=O)[O-])c3)nn12)Nc1cccc(C(F)(F)F)c1,3.34
9,COc1ccc2nc(N(CCCn3ccnc3)C(=O)c3cccc(OC)c3OC)sc2c1,11.3
10,O=C(/C=C/c1ccccc1Cl)Nc1nnc(C2=COCCO2)o1,26.7
11,O=C(NNc1nc2ccc(Cl)cc2s1)c1nc2ccccc2s1,3.15
12,CCOc1cccc2sc(N3CCc4ccccc4C3)nc12,15.3
13,Cc1ccc(C)c(-c2nnc(NC(=O)C3COc4ccccc4O3)o2)c1 (centres undefined),1.18
14,COc1cc(OC)cc(C(=O)N(CCCn2ccnc2)c2nc3c(F)cccc3s2)c1,20.6
15,O=C(NCCSc1c[nH]c2ccccc12)Nc1c[nH]c2ccccc12,10.2
16,Cc1cc(C)cc(Nc2nc(Nc3ccc(F)cc3)nc(N3CCOCC3)n2)c1,11.1
17,CCOc1ccc(-c2[nH]ncc2-c2ccc(Cl)cc2)c(O)c1,7.06
18,Nc1[nH]nc2nc(N3CCCCC3)nc(-c3ccc4c(c3)OCO4)c12,11.6
19,O=C(Nc1nnc(C2=COCCO2)o1)c1cc(Cl)sc1Cl,34.1
20,O=C(Nc1nnc(-c2ccc(Br)cc2)o1)c1ccccc1F,4.4
21,COc1ccc(-c2nnc(NC(=O)c3ccc4c(c3)OCCO4)o2)c(OC)c1,24.7
22,COc1cccc(C(=O)Nc2nc3c(s2)CC(C)CC3)c1 (centres undefined),14.1
23,C/C(=N\NC(=O)c1cc(-c2ccc(Cl)s2)[nH]n1)c1ccco1,6.9

row,SMILES,IC90 [µg/mL]
1,C=CCN(CC=C)S(=O)(=O)c1ccc(C(=O)Nc2nnc(-c3cc(Cl)ccc3Cl)o2)cc1,12.8
2,C/C(=N\Nc1nc(=O)[nH]nc1C)c1ccccc1O,< 0.2
3,N#Cc1ccc(C(=O)Nc2nnc(-c3cccnc3)o2)cc1,53.3
4,N#C/C(=C\c1c(Oc2ccccc2F)nc2ccccn2c1=O)C(N)=O,11.4
5,O=C(N=Nc1c(O)[nH]c2ccccc12)c1cc(-c2cccc(OCc3ccccc3)c2)n[nH]1,20.2
6,O=C(CCOc1ccccc1)Nc1nnc(-c2ccc3c(c2)OCCO3)o1,95.9
7,OCCN1CCN(c2ncnc3c2cnn3-c2ccc(Cl)c(Cl)c2)CC1,14.9
8,O=C(Nc1nnc(-c2cccs2)o1)c1ccc2c(c1)CCCC2,37.6
9,O=C(c1ccc(NC2=C(Cl)C(=O)N(Cc3ccccc3)C2=O)cc1)N1CCCCC1,6.24
10,COC(=O)c1cc(C(=O)OC)cc(-n2c(C)cc(C(=O)CCl)c2C)c1,6.39
11,COc1cc2c3nnc(-c4ccc(Cl)cc4)c-3cn(Cc3ccccc3F)c2cc1OC,22.2
12,Fc1cccc2sc(Nc3nc(-c4ccccn4)cs3)nc12,< 0.2
13,O=C(NCCCSc1nc2ccccc2o1)Nc1ncccn1,25.1
14,O=C(Nc1nnc(-c2ccc(Br)cc2)o1)C1COc2ccccc2O1 (centres undefined),7.27
15,COc1ccc(-c2nc(C(N)=O)c3[nH]c(=O)n(-c4ccc(C(C)(C)C)cc4)c3n2)c(OC)c1,17.3
16,COc1ccc(OCC(=O)Nc2ccc(I)cc2C)cc1,3.2
17,COc1ccccc1-c1nnc(NC(=O)c2ccco2)o1,13.4
18,Cc1ccc(C)c(C(=O)Nc2nnc(-c3ccc(C)c(C)c3)o2)c1,2.66
19,O=C(Cc1cccc2ccccc12)Nc1nc(-c2ccc(Br)s2)cs1,15.7
20,CCCCc1ccc2nc(Nc3nc4ccc(S(C)(=O)=O)cc4s3)sc2c1,31.8
21,N/C(=N\OC(=O)c1ccccc1F)c1ccccn1,18.7
22,CN1CCc2c(sc(NC(=O)c3ccc([N+](=O)[O-])o3)c2C(N)=O)C1,10.5
23,CC(C)N1CCc2c(sc(NC(=O)c3nc4ccccc4s3)c2C(N)=O)C1,12.9

row,SMILES,IC90 [µg/mL]
1,CCOc1cccc2nc(NC(=O)c3ccc(Oc4ccccc4)cc3)sc12,13.7
2,N#C/C(=C\c1ccc([N+](=O)[O-])cc1)c1nc2ccccc2[nH]1,6.12
3,COc1cccc(C(=O)N(CCCn2ccnc2)c2nc3ccc(F)cc3s2)c1OC,6.75
4,CCOc1ccc(NC(=O)c2c(Cl)ccc(Cl)c2Cl)cc1,11.7
5,Cc1cccc2nc(NC(=O)c3ccc(Oc4ccccc4)cc3)sc12,8.53
6,CCOc1cccc2sc(NC(=O)c3ccc(Cl)cc3Cl)nc12,11.6
7,O=C(Cc1ccc(F)cc1)N(CCCn1ccnc1)c1nc2c(F)cccc2s1,3.66
8,O=C(Nc1nnc(-c2ccc(Cl)s2)o1)c1cccc([N+](=O)[O-])c1,6.09
9,O=C(Nc1nnc(-c2cccs2)o1)c1ccco1,3.41
10,CC(=O)Oc1cc(C)cc2oc(=O)c3c(c12)CCCC3,6.79
11,COc1ccccc1-c1nnc(NC(=O)Cc2ccc(SC)cc2)o1,52.6
12,CC1CCCN(Cc2c(O)ccc3c(=O)c(-c4nc5ccccc5s4)c(N)oc23)C1 (centres undefined),2.89
13,Oc1ccc2ccccc2c1N=Nc1nn[nH]n1,< 0.2
14,CC(C)C(=O)Nc1nnc(-c2ccc3c(c2)OCCO3)o1,52.3
15,O=C(Nc1nnc(-c2ccco2)o1)c1ccc(Oc2ccccc2)cc1,< 0.2
16,COc1ccc(CNC(=O)c2c(C)oc3c2C(=O)c2ccccc2C3=O)cc1,1.1
17,CCOC(=O)COc1cccc(/C=C2\Oc3cc(OC)ccc3C2=O)c1,3.52
18,O=C(Nc1nnc(-c2cccs2)o1)C1CCCCC1,26.9
19,COc1ccc(-c2nnc3c4cc(OC)c(OC)cc4n(Cc4ccc(C)cc4)cc2-3)cc1,95.4
20,COc1ccc(C)c2sc(N3CCc4ccccc4C3)nc12,11.1
21,Cc1ccc2sc(NNC(=O)c3cccs3)nc2c1C,23.2
22,CCOC(=O)c1cc(NC(=O)Nc2ccc(Cl)c(Cl)c2)c(C)nc1C,12.4
23,CCOC(=O)COc1ccc2cc(-c3ccc(OC)c(OC)c3)c(=O)oc2c1,2.18

row,SMILES,IC90 [µg/mL]
1,Cc1ccc(C)c(-c2nnc(NC(=O)c3cccc(F)c3)o2)c1,30.9
2,Cc1cccc2sc(NNC(=O)c3nc4ccccc4s3)nc12,3.36
3,COc1cc2ccccc2cc1C(=O)Nc1nnc(-c2ccc(F)cc2)o1,5.59
4,O=C(Nc1nc(-c2ccc3c(c2)OCCO3)cs1)c1cccc(C(F)(F)F)c1,13.9
5,Cc1ccccc1C(=O)N1N=C(c2c(-c3ccccc3)c3cc(Br)ccc3[nH]c2=O)CC1c1ccccc1 (centres undefined),1.68
6,Cc1ccc(C(=O)Nc2nnc(-c3ccc(C)cc3C)o2)cc1,33.5
7,O=C(Nc1nnc(-c2cc(Cl)ccc2Cl)o1)c1ccccc1Br,1.6
8,O=C(CSc1ncnc2c1oc1ccccc12)OCc1ccccc1,12.1
9,COC(=O)c1ccc(CSc2nnc(-c3ccncc3)o2)o1,5.77
10,COc1ccc(-c2ccc(C3C(C#N)=C(N)Oc4n[nH]c(C)c43)o2)cc1 (centres undefined),4.92
11,O=C(CCSc1ccccc1)Nc1nnc(-c2ccc3c(c2)CCCC3)o1,1.93
12,Cc1ccc(-c2nnc(NC(=O)C3CC3)o2)c(C)c1,1.47
13,O=C(Nc1nnc(-c2ccc3c(c2)OCCO3)o1)c1ccccc1Br,12.6
14,Cc1c(Cc2ccc(Cl)cc2)c(NCCCN(C)C)n2c(nc3ccccc32)c1C#N,2.21
15,O=C(Nc1nnc(-c2cc(Cl)ccc2Cl)o1)c1ccc(S(=O)(=O)N2CCCC2)cc1,25.6
16,O=C(Cc1ccccc1)N(CCCn1ccnc1)c1nc2c(F)cccc2s1,7.4
17,O=[N+]([O-])c1cccc(-c2ccc(/C=N/O)o2)c1,11.9
18,COc1ccc2c(c1)c1nnc(-c3ccc(C)cc3)c-1cn2Cc1ccccc1OC,4.23
19,CC(C)c1ccc(OCC(=O)Nc2nccs2)cc1,6.88
20,CC(O)CNc1ncnc2c1cnn2-c1ccc(Cl)c(Cl)c1 (centres undefined),12.5
21,Cc1ccc(C)c(-c2nnc(NC(=O)c3ccc(Br)s3)o2)c1,6.75
22,CCS(=O)(=O)c1cccc(C(=O)Nc2nc3ccc(C(C)C)cc3s2)c1,11.3
23,O=C(Nc1nnc(-c2ccc(Cl)cc2)o1)c1cc2ccccc2oc1=O,18.2

row,SMILES,IC90 [µg/mL]
1,COc1cc2c3nnc(-c4ccc(C)c(C)c4)c-3cn(Cc3ccc(C)cc3)c2cc1OC,1.55
2,CN(C)S(=O)(=O)c1ccc(C(=O)N2CC(=O)Nc3ccc(Br)cc3C2c2ccccc2)cc1 (centres undefined),35.3
3,COc1cccc(NC(=O)c2ccc(COc3cccc(C)c3)o2)c1,11.7
4,O=C(Nc1nnc(-c2ccc(Br)cc2)o1)c1ccc(Cl)s1,1.87
5,NC(=O)c1oc2ccccc2c1NC(=O)C1CC(=O)N(c2ccc(Cl)cc2)C1 (centres undefined),3.15
6,COc1ccc(-c2nnc(NC(=O)c3ccccc3Br)o2)cc1,82.2
7,O=C(Nc1nnc(-c2cc(Cl)ccc2Cl)o1)c1ccc(S(=O)(=O)N2CCOCC2)cc1,3.86
8,CN1CCc2c(sc(NC(=O)c3ccc4ccccc4c3)c2C(N)=O)C1,11.9
9,CC(C)N1CCc2c(sc(NC(=O)c3ccc(Oc4ccccc4)cc3)c2C(N)=O)C1,12.5
10,Cc1ccc(-c2nnc3c4cc5c(cc4n(Cc4cccc(C)c4)cc2-3)OCCO5)cc1,5.76
11,O=C(Nc1nnc(-c2ccc(F)cc2)o1)c1cccc([N+](=O)[O-])c1,13.2
12,COc1cccc2sc(Nc3nc4ccccc4s3)nc12,3.41
13,O=C(CCOc1ccccc1)Nc1nnc(-c2ccc(Cl)s2)o1,13.9
14,COc1cccc(-c2nnc(NC(=O)c3ccc(Cl)cc3Cl)o2)c1,8.25
15,COc1cccc(C(=O)N(CCCn2ccnc2)c2nc3ccc(C)cc3s2)c1OC,2.63
16,COc1ccc2nc(Nc3nc(-c4ccccn4)cs3)sc2c1,< 0.2
17,O=C(OCn1nnc2ccccc2c1=O)c1cccs1,4.31
18,CC(=O)c1ccc(C(=O)Nc2nnc(-c3cc(Cl)ccc3Cl)o2)cc1,94.4
19,COc1ccc2nc(NNC(=O)c3cccc(F)c3)sc2c1,15.8
20,COc1cc2c3nnc(-c4ccc(F)cc4)c-3cn(Cc3ccccc3)c2cc1OC,12
21,Cc1ccc(-c2nnc(NC(=O)c3ccc(Cl)cc3Cl)o2)c(C)c1,4.12
22,O=C(CSCc1ccc(Cl)c(Cl)c1)Nc1ccc(F)cc1,12.9
